Test results published in patent US20120323016A1, “METHOD OF PREPARING DERIVATIVES/OLIGOMERS OF EPICATECHIN AND APPLICATIONS THEREOF” (NATIONAL UNIVERSITY OF SINGAPORE, priority 2009, published 2012).

Assay: Oxygen radical absorbance capacity (ORAC) assay
Method: Peroxyl radical scavenging capacity of the EC2S2 was determined using oxygen radical absorbance capacity (ORAC) assay (Huang, D.; Ou, B.; Hampsch-Woodill, M.; Flanagan, J. A.; Prior, R. L. High-throughput assay of oxygen radical absorbance capacity (ORAC) using a multichannel liquid handling system coupled with a microplate fluorescence reader in 96-well format. Journal of Agricultural and Food Chemistry (2002), 50(16), 4437-4444.). […] The net area under the curve has excellent linear relationship with the concentration of EC2S2. The ORAC value calculated from the individual concentration is 10.79±0.58 μmol TE/μmol sample. This is the highest ORAC value reported for pure antioxidant compounds.

With `Oc1cc(O)c2c(c1)O[C@H](c1ccc(O)c(O)c1)[C@H](O)[C@H]2SCCS[C@H]1c2c(O)cc(O)cc2O[C@H](c2ccc(O)c(O)c2)[C@@H]1O` [EC2S2, (2R,2′R,3S,3′S,4S,4′S)-4,4′-(ethane-1,2-diylbis(sulfanediyl))bis(2-(3,4-dihydroxyphenyl)chroman-3,5,7-triol)] the “antioxidant activity relative to EC” value (EC2S2 synthesized from Pine Bark OPCs, compared with EC) was “two times higher than EC” and the “ORAC value (peroxyl radical scavenging capacity)” value (calculated from the individual concentration, Trolox standard) was 10.79±0.58 μmol TE/μmol sample.
